Test results reported in US20120251527A1, “PODOCYTE SPECIFIC ASSAYS AND USES THEREOF” (University of Miami, priority 2009, published 2012).

Test system: NFAT
Experiment: Podocyte-NFAT reporter assay (luciferase)
Assay type: cell-based, mouse
Conditions: for baseline NFAT activity: wild type (wt) podocytes, single inhibitor, FIG. 8
Source text: Podocyte-NFAT reporter assays: A podocyte cell line that stably expressed pGL4.30 reporter plasmid (Promega) was generated. pGL4.30 includes the luc2P firefly luciferase gene under the control of the NFAT response element. For LPS treatments both wt and stable TRPC6 knockdown podocyte cell line were transiently transfected with the pGL4.30 and pGL4.74 reporter plasmids (Promega). pGL4.74 includes the hRluc Renilla luciferase gene under the control of the constitutive HSV-TK promoter, serving as an internal control for normalization of the results. Cells were seeded in 96 well plates in standardized cell number and differentiated for three weeks prior to transfection and treatments. Stable cell lines were probed with BRIGHT-GLO Luciferase Assay System (Promega), transiently transfected cells were assayed with DUAL-GLO Luciferase Assay System (Promega). Luminescence was measured on a Molecular Devices luminescence microplate reader SpectraMax L. All experiments were carried out in octuplicate per condition and repeated in three independent experiments.

| Molecule | NFAT activity after pretreatment with the substance (wt podocytes, versus low baseline, FIG. 6A) | baseline NFAT activity |
| --- | --- | --- |
| lipopolysaccharide [LPS] | strongly increased | – |
| CN([C@@H](Cc1ccc(OS(=O)(=O)c2cccc3cnccc23)cc1)C(=O)N1CCN(c2ccccc2)CC1)S(=O)(=O)c1cccc2cnccc12 [KN-62] | – | reduction |
| O=S(=O)(NCCNC/C=C/c1ccc(Br)cc1)c1cccc2cnccc12 [H-89] | – | reduction |
